Assay results: PMC11576293, “New series of 4,6-diaryl pyrimidines: facile synthesis and antiproliferative activity as dual EGFR/VEGFR-2 inhibitors” (Frontiers in Chemistry, 2024)

Tests used:
COLO 205 = assay: NCI-60 single-dose screen; assay type: cell-based; conditions: Homo sapiens, single dose 10 µM, '-' = no inhibition, read-out: % Growth Inhibition
In short: (§1)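 NCI Developmental Therapeutics Program screen across 60 human cancer cell lines from nine tumor types; compounds tested at a single dose of 10 μM.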

DU-145 = assay: NCI-60 single-dose screen; assay type: cell-based; conditions: Homo sapiens, single dose 10 µM, '-' = no inhibition, read-out: % Growth Inhibition
In short: as §1

HL-60(TB) = assay: NCI-60 single-dose screen; assay type: cell-based; conditions: Homo sapiens, single dose 10 µM, '-' = no inhibition, read-out: % Growth Inhibition
K-562 = assay: NCI-60 single-dose screen; assay type: cell-based; conditions: Homo sapiens, K562, single dose 10 µM, '-' = no inhibition, read-out: % Growth Inhibition
In short: as §1

LOX IMVI = assay: NCI-60 single-dose screen; assay type: cell-based; conditions: Homo sapiens, single dose 10 µM, '-' = no inhibition, read-out: % Growth Inhibition
In short: as §1

MDA-MB231/ATCC = assay: NCI-60 single-dose screen; assay type: cell-based; conditions: Homo sapiens, MDA-MB-231, single dose 10 µM, '-' = no inhibition, read-out: % Growth Inhibition
In short: as §1

NCI-H23 = assay: NCI-60 single-dose screen; assay type: cell-based; conditions: Homo sapiens, single dose 10 µM, '-' = no inhibition, read-out: % Growth Inhibition
In short: as §1

NCI-H322M = assay: NCI-60 single-dose screen; assay type: cell-based; conditions: Homo sapiens, single dose 10 µM, '-' = no inhibition, read-out: % Growth Inhibition
In short: as §1

OVCAR-4 = assay: NCI-60 single-dose screen; assay type: cell-based; conditions: Homo sapiens, single dose 10 µM, '-' = no inhibition, read-out: % Growth Inhibition
In short: as §1

OVCAR-8 = assay: NCI-60 single-dose screen; assay type: cell-based; conditions: Homo sapiens, single dose 10 µM, '-' = no inhibition, read-out: % Growth Inhibition
In short: as §1

SR = assay: NCI-60 single-dose screen; assay type: cell-based; conditions: Homo sapiens, single dose 10 µM, '-' = no inhibition, read-out: % Growth Inhibition
In short: as §1

A-549 = assay: Antiproliferative assay (MTT); assay type: cell-based; conditions: Homo sapiens, A549, A-549 (lung), read-out: Antiproliferative activity IC50 ± SEM, A-549
In short: (§2)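 MTT assay on tumour cell lines, compound in 0.1% DMSO final, 96 h at 37 °C. MTT at 0.4 mg/mL for 3 h, then DMSO solubilisation and absorbance at 540 nm. IC50 from dose-response, at least two independent runs in triplicate.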

HT-29 = assay: Antiproliferative assay (MTT); assay type: cell-based; conditions: Homo sapiens, HT-29 (colon), read-out: Antiproliferative activity IC50 ± SEM, HT-29
In short: as §2

MCF-7 = assay: Antiproliferative assay (MTT); assay type: cell-based; conditions: Homo sapiens, MCF7, MCF-7 (breast), read-out: Antiproliferative activity IC50 ± SEM, MCF-7
In short: as §2

Panc-1 = assay: Antiproliferative assay (MTT); assay type: cell-based; conditions: Homo sapiens, Panc-1 (pancreatic), read-out: Antiproliferative activity IC50 ± SEM, Panc-1
In short: as §2

[1] = test system: four cancer cell lines (A-549, MCF-7, Panc-1, HT-29); assay: Antiproliferative assay, average over four cancer cell lines; assay type: cell-based; conditions: Homo sapiens; average of the four cancer cell lines; read-out: Average IC50 (GI50)
Excerpt: Table 2 presents the four cancer cell lines’ median inhibitory concentration (IC50) and GI50 (average IC50) values.
The IC50 values were derived from dose-response tests. The reported data are derived from at least two independent studies, each comprising three replicates per concentration. See Supplementary Material A1 for more details.

SMILES	inhibition at 10 µM (COLO 205)	inhibition at 10 µM (DU-145)	inhibition at 10 µM (HL-60(TB))	inhibition at 10 µM (K-562)	inhibition at 10 µM (LOX IMVI)	inhibition at 10 µM (MDA-MB231/ATCC)	inhibition at 10 µM (NCI-H23)	inhibition at 10 µM (NCI-H322M)	inhibition at 10 µM (OVCAR-4)	inhibition at 10 µM (OVCAR-8)	inhibition at 10 µM (SR)	IC50 (A-549)	IC50 (HT-29)	IC50 (MCF-7)	IC50 (Panc-1)	IC50 [1]	melting point
COc1ccc(-c2cc(-c3ccc(Cl)cc3)nc(SC(C)C)n2)cc1OC [Compound 26, 4-(4-Chlorophenyl)-2-(isopropylthio)-6-(3,4-dimethoxyphenyl)pyrimidine]	< 0%	< 0%	14.5%	6.67%	4.14%	4.5%	< 0%	1.11%	< 0%	4.2%	12.6%	40 ± 3 nM	42 ± 3 nM	42 ± 3 nM	40 ± 3 nM	41 nM	233 to 253 °C
C=CCSc1nc(-c2ccc(Cl)cc2)cc(-c2ccc(OC)c(OC)c2)n1 [Compound 27, 2-(Allylthio)-4-(4-chlorophenyl)-6-(3,4-dimethoxyphenyl)pyrimidine]	< 0%	2.02%	29.2%	42%	7.11%	7.53%	7.78%	< 0%	10.3%	7.89%	30.3%	56 ± 5 nM	60 ± 6 nM	60 ± 6 nM	58 ± 5 nM	59 nM	244 to 246 °C
COc1ccc(-c2cc(-c3ccc(Cl)cc3)nc(SCc3ccccc3)n2)cc1OC [Compound 28, 2-(Benzylthio)-4-(4-chlorophenyl)-6-(3,4-dimethoxyphenyl)pyrimidine]	3.49%	8.2%	21.4%	30.9%	8.32%	23%	2.2%	< 0%	21.5%	8.97%	39.4%	39 ± 3 nM	41 ± 3 nM	43 ± 3 nM	40 ± 3 nM	41 nM	239 to 241 °C
COc1ccc(CSc2nc(-c3ccc(Cl)cc3)cc(-c3ccc(OC)c(OC)c3)n2)cc1 [Compound 29, 2-(4-Methoxybenzylthio)-4-(4-chlorophenyl)-6-(3,4-dimethoxyphenyl)pyrimidine]	11.3%	28.6%	38.8%	54.5%	20.9%	30.3%	14.6%	17.4%	21.9%	19.4%	45.8%	23 ± 2 nM	24 ± 2 nM	25 ± 2 nM	23 ± 2 nM	24 nM	279 to 281 °C
